In patent US7632858B2 (priority 2002, dated 2009):
pKd: −log10 of the molar value.

Assays:
[1] = biological target: T1, AR (Rattus norvegicus, UniProt P15207)
T1 sequence (P15207 1-902): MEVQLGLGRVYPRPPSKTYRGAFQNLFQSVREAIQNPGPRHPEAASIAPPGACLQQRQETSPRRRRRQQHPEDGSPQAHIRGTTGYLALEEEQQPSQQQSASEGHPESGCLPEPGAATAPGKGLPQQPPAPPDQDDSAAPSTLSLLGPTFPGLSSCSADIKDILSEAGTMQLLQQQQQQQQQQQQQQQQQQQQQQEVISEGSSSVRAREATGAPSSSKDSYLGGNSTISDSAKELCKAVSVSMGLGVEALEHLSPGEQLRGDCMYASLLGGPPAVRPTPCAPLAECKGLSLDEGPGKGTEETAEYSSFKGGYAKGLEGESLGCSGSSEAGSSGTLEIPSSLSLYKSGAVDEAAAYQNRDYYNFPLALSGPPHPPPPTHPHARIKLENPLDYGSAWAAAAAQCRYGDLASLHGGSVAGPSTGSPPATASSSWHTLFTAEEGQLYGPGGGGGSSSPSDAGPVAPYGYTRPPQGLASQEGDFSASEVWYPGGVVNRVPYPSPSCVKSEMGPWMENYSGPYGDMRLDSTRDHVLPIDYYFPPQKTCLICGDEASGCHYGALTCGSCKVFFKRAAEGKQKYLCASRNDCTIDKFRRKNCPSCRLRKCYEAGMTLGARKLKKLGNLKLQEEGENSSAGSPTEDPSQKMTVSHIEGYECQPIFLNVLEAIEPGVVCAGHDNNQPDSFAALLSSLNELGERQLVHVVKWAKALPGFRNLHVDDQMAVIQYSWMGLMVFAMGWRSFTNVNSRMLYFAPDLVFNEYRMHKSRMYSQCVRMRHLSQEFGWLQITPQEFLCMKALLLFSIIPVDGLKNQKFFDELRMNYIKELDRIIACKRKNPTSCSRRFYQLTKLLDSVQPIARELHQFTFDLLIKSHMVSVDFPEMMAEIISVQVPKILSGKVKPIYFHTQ
Text: The activity of compounds of the present invention as AR agonists was investigated in an immature male rat model, a recognized test of anabolic effects in muscle and sustaining effects in sex organs for a given compound, as described in L. G. Hershberger et al., Proc. Soc. […] Biol. Med., 83, 175 (1953); B. L. Beyler et al, “Methods for evaluating anabolic and catabolic agents in laboratory animals”, J. Amer. Med. Women's Ass., 23, 708 (1968); H. Fukuda et al., “Investigations of the levator ani muscle as an anabolic steroid assay”, Nago Dai. […] Nem. 14, 84 (1966) the disclosures of which are herein incorporated by reference.
The basis of this assay lies in the well-defined action of androgenic agents on the maintenance and growth of muscle tissues and sexual accessory organs in animals and man. […] J. Anat. […] Ital. Biol. Sper. […] II. […] Ital. Biol. Sper. 42, 1600 (1966); A. Boris et al., Steroids 15, 61 (1970). As described above, the effects of androgens on maintenance of male sexual accessory organs, such as the prostate and seminal vesicles, is well described. Castration results in rapid involution and atrophy of the prostate and seminal vesicles. This effect can be reversed by exogenous addition of androgens. […]

[2] = biological target: wild type AR; settings: read-out: Kd for [3H]-DHT; MDA 453 cells, Scatchard analysis
Method: For the whole-cell binding assay, human LNCaP cells (T877A mutant AR) or MDA 453 (wild type AR) in 96-well microtiter plates containing RPMI 1640 or DMEM supplemented with 10% charcoal stripped CA-FBS (Cocaleco Biologicals) respectively, were incubated at 37° C. to remove any endogenous ligand that might be complexed with the receptor in the cells.
For the saturation analysis, the difference between the total binding and the non-specific binding, was defined as specific binding. […] See e.g. D. Rodbard, Mathematics and statistics of ligand assays: an illustrated guide: In: J. Langon and J. J. Clapp, eds., Ligand Assay, Masson Publishing U.S.A., Inc., New York, pp. 45-99, (1981), the disclosure of which is herein incorporated by reference.
Two replicates were used for each sample.

| Molecule | potency relative to free T ([1]; TP versus free T) | EC50 (increase in organ weight) ([1]; immature castrated rats) [mg] | pKd [2] |
| --- | --- | --- | --- |
| CCC(=O)O[C@H]1CC[C@H]2[C@@H]3CCC4=CC(=O)CC[C@]4(C)[C@H]3CC[C@]12C [TP, testosterone propionate] | 10-30 fold | ~0.03 | – |
| tritiated dihydrotestosterone [[^3H]-DHT] | – | – | 9.15 |
